As a reminder, the IC50 is the concentration that inhibits the measured activity by half.

This is an account of results in US8506945B2, “Polymers with structure-defined functions” (Smith & Nephew, PLC., priority 2001, dated 2013).

In data set [1] the test system is ovine meniscal chondrocytes P3. Briefly: Cytotoxicity on chondrocyte culture, PicoGreen DNA assay. It counts as cell-based. As to conditions: 48 h incubation, DNA by PicoGreen assay. The text has this:
The high chemical reactivity of protease inhibitors represents toxicological problems both in vitro and potentially in vivo. […] DNA concentrations were obtained using a PicoGreen assay.

In another data set the target is Elastase. As to conditions: Elastase (1.2 μg/ml), 20° C., 0.2M TRIS buffer.
The next data set concerns the target Thrombin (Homo sapiens, UniProt P00734). In words: biochemical.

With `NCCc1ccc(S(=O)(=O)F)cc1` [AEBSF, 4-(2-aminoethyl)benzenesulphonylfluoride], the “concentration at which significant toxicity deviation from the vehicle alone begins” value in data set [1] was found to be 8 µg/mL. Also, the values for the IC50 against Elastase and against Thrombin were 312 µM and 712 µM, respectively.
